pIC50, pKi: −log10 of the molar value. Where two headings read alike, the source gives them in different places.
Legend:
[1] = target: DNA-PK phosphorylation at serine 2056 (Homo sapiens (Human), UniProt P78527); assay: DNA-PK phosphorylation at serine 2056 (cellular), bleomycin-treated HCT116 cells, ELISA; assay type: cell-based; details: read-out: IC50 pDNA-PK
Outline: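 Chemiluminescent ELISA quantified DNA-PK Ser2056 phosphorylation relative to total DNA-PKcs in HCT116 cells. Cells received compounds together with 10 μM bleomycin for 6 h; DMSO served as blank.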

DNA-PK = DNA-PK (Homo sapiens (Human), UniProt P78527); assay: DNA-PK assay (biochemical), flashplate 33P-ATP kinase assay
Outline: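 Radiometric kinase reaction in streptavidin-coated flashplates, stopped with 200 mM EDTA, then 30 min room-temperature incubation and saline washes.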

Kv11.1 (hERG) = Kv11.1 (hERG) (Homo sapiens (Human), UniProt Q12809); assay: Kv11.1 (hERG) ion channel activity (patch clamp assay), HEK293 cells transfected with hERG gene
Kv11.1 (hERG), sequence (Q12809 whole entry): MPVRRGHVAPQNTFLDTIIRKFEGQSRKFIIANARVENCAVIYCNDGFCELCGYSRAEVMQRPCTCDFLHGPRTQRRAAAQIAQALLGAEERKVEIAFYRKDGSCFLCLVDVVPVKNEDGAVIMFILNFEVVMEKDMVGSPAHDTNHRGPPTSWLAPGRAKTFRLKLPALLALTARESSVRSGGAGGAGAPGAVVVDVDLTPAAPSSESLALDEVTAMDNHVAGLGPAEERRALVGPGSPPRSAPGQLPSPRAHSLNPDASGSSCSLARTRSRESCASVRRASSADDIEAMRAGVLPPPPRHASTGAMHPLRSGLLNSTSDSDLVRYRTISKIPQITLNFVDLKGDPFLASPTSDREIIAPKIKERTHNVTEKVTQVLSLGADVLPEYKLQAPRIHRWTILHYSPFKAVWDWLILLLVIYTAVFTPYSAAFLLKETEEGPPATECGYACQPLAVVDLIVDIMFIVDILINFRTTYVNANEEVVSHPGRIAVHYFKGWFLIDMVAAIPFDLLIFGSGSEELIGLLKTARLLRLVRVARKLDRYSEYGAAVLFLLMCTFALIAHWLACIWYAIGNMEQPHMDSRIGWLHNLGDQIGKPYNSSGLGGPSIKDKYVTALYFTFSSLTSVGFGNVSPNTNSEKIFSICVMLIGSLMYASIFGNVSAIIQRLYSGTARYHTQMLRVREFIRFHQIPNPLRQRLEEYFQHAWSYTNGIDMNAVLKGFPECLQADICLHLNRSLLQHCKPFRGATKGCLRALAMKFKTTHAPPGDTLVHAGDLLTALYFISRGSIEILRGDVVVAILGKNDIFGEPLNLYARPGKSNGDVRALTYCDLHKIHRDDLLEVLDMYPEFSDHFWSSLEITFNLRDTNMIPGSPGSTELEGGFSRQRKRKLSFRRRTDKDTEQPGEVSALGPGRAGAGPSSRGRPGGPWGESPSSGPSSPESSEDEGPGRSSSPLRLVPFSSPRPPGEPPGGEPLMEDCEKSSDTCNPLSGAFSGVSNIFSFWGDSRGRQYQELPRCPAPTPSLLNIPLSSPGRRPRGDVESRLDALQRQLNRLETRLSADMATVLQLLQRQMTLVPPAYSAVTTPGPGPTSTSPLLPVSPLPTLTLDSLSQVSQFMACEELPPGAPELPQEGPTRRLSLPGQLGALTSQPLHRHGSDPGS

[2] = cellular DNA-PK phosphorylation at serine 2056, HCT116
[3] = read-out: Ki [Kv1.11 hERG], hERG patch clamp assay (cells without asterisk)
[4] = cellular, HCT116 cells, 10 μM bleomycin, six hours
[5] = read-out: Ki [Kv1.11 hERG], patch clamp, HEK293 transfected with hERG gene
[6] = Ki [Kv1.11 hERG], hERG patch clamp assay (cells without asterisk)
[7] = Ki [Kv1.11 hERG], patch clamp, HEK293 transfected with hERG gene

Row | SMILES | pIC50 [1, 2] | pIC50 (DNA-PK; biochemical DNA-PK assay) | pKi (Kv11.1 (hERG); [3]) | also measured
1 | OC(c1ccc(Cl)nn1)c1cc(-c2ncnc3cc(N4CCOCC4)ccc23)c(F)cc1F (stereo not drawn) [Example 49, (6-Chloro-pyridazin-3-yl)-[2,4-difluoro-5-(7-morpholin-4-yl-quinazolin-4-yl)phenyl]-methanol] |  |  |  | pIC50 [1, 4]: 5.30 to 6.30; pIC50 (DNA-PK; enzymatic, 5 μM ATP): > 8.52; pKi (Kv11.1 (hERG); [5]): < 4.60
2 | Cn1cnc2c(C(O)c3cc(-c4ncnc5cc(N6CCOCC6)ccc45)ccc3Cl)ncnc21 (stereo not drawn) [Example 371, [2-Chloro-5-(7-morpholin-4-yl-quinazolin-4-yl)-phenyl]-(9-methyl-9H-purin-6-yl)-methanol] | 5.30 to 6.30 | 7.52 to 8.15 |  | pKi (Kv11.1 (hERG); [6]): 4.82 to 5.00
3 | C#Cc1nc(-c2cc(C(O)c3nccs3)ccc2F)c2ccc(N3CCOCC3)cc2n1 (stereo not drawn) [Example 215, [3-(2-Ethynyl-7-morpholin-4-yl-quinazolin-4-yl)-4-fluorophenyl]-thiazol-2-yl-methanol] |  |  |  | pIC50 [1, 4]: 5.00 to 5.30; pIC50 (DNA-PK; enzymatic, 5 μM ATP): > 8.52; pKi (Kv11.1 (hERG); [5]): > 5.00
4 | OC(c1ccc(F)c(-c2ncnc3cc(N4CCOCC4)ccc23)c1)c1cnccn1 (stereo not drawn) [Example 33, [4-Fluoro-3-(7-morpholin-4-yl-quinazolin-4-yl)phenyl]-pyrazin-2-ylmethanol] |  |  |  | pIC50 [1, 4]: 4.52 to 5.00; pIC50 (DNA-PK; enzymatic, 5 μM ATP): 7.52 to 8.15; pKi (Kv11.1 (hERG); [5]): > 5.00
5 | COc1nccnc1[C@H](O)c1cc(-c2ncnc3cc(N4CCOCC4)ccc23)c(F)cc1Cl [Example 455, (R)-[2-Chloro-4-fluoro-5-(7-morpholin-4-yl-quinazolin-4-yl)-phenyl]-(3-methoxy-pyrazin-2-yl)-methanol] | > 6.30 | > 8.52 |  | pKi (Kv11.1 (hERG); [6]): 4.60 to 4.82
6 | Cn1c(C(O)c2cc(-c3ncnc4cc(N5CCOCC5)ccc34)c(F)cc2F)cccc1=O (stereo not drawn) [Example 381, 6-{[2,4-Difluoro-5-(7-morpholin-4-yl-quinazolin-4-yl)-phenyl]hydroxy-methyl}-1-methyl-1H-pyridin-2-one] | 5.30 to 6.30 | > 8.52 | < 4.60 | 
7 | Cn1c(C(O)c2cc(-c3ncnc4cc(N5CCOCC5)ccc34)ccc2Cl)cccc1=O (single isomer, unassigned) [Example 363, 6-{[2-Chloro-5-(7-morpholin-4-yl-quinazolin-4-yl)-phenyl]hydroxy-methyl}-1-methyl-1H-pyridin-2-one] | 5.00 to 5.30 | 7.52 to 8.15 |  | pKi (Kv11.1 (hERG); [6]): 4.60 to 4.82
8 | CC(O)c1csc(C(O)c2cc(-c3ncnc4cc(N5CCOCC5)ccc34)c(F)cc2Cl)n1 (stereo not drawn) [Example 201, 1-(2-{[2-Chloro-4-fluoro-5-(7-morpholin-4-yl-quinazolin-4-yl)-phenyl]hydroxy-methyl}thiazol-4-yl)-ethanol] |  |  |  | pIC50 ([1]; Table 5, HCT116 cells): 5.30 to 6.30; pIC50 (DNA-PK; Table 5): 8.15 to 8.52; pKi (Kv11.1 (hERG); Ki [Kv1.11 hERG], Table 5): 4.60 to 4.82
9 | OC(c1cc(-c2ncnc3cc(N4CCOCC4)ccc23)c(F)cc1F)c1nnc2ccccn12 (stereo not drawn) [Example 379, [2,4-Difluoro-5-(7-morpholin-4-yl-quinazolin-4-yl)-phenyl]-[1,2.4]-triazolo[4,3-a]pyridin-3-ylmethanol] | 5.30 to 6.30 | 8.15 to 8.52 | < 4.60 | 
10 | CC(C#N)Oc1ccc(C(O)c2cc(-c3ncnc4cc(N5CCOCC5)ccc34)c(F)cc2Cl)nn1 (single isomer, unassigned) [Example 103, 2-(6-{[2-Chloro-4-fluoro-5-(7-morpholin-4-yl-quinazolin-4-yl)-phenyl]hydroxy-methyl}pyridazin-3-yloxy)propionitrile] |  |  |  | pIC50 [1, 4]: 4.52 to 5.00; pIC50 (DNA-PK; enzymatic, 5 μM ATP): < 7.52; pKi (Kv11.1 (hERG); [5]): < 4.60
11 | O=c1[nH]nc(C(O)c2ccc(F)c(-c3ncnc4cc(N5CCOCC5)ccc34)c2)c2sccc12 (stereo not drawn) [Example 337, 7-[[4-Fluoro-3-(7-morpholino-quinazolin-4-yl)-phenyl]hydroxy-methyl]-5H-thieno-[2,3-d}pyridazin-4-one] | 5.30 to 6.30 | > 8.52 |  | pKi (Kv11.1 (hERG); [6]): 4.60 to 4.82
12 | [2H]C1([2H])OC([2H])([2H])C([2H])([2H])N(c2ccc3c(-c4cc([C@H](O)c5nccnc5C)ccc4F)ncnc3c2)C1([2H])[2H] [Example 243, (S)-[4-Fluoro-3-[7-(2,2,3,3,5,5,6,6-octadeuteriomorpholin-4-yl)quinazolin-4-yl]phenyl]-(3-methylpyrazin-2-yl)methanol] | 5.30 to 6.30 | 7.52 to 8.15 | 4.60 to 4.82 | 
13 | O=c1ccc(C(O)c2ccc(F)c(-c3ncnc4cc(N5CCOCC5)ccc34)c2)n[nH]1 (stereo not drawn) [Example 76, 6-{[4-Fluoro-3-(7-morpholin-4-yl-quinazolin-4-yl)phenyl]-hydroxymethyl}-2H-pyridazin-3-one] |  |  |  | pIC50 [1, 4]: 5.30 to 6.30; pIC50 (DNA-PK; enzymatic, 5 μM ATP): > 8.52; pKi (Kv11.1 (hERG); [5]): < 4.60
14 | Cn1ncc2c(C(O)c3cc(-c4ncnc5cc(N6CCOCC6)ccc45)ccc3Cl)ncnc21 (stereo not drawn) [Example 385, [2-Chloro-5-(7-morpholin-4-yl-quinazolin-4-yl)-phenyl]-(1-methyl-1H-pyrazolo[3,4-d}-pyrimidin-4-yl)-methanol] | 5.30 to 6.30 | 7.52 to 8.15 | < 4.60 | 
15 | OC(c1cc(-c2ncnc3cc(N4CCOCC4)ccc23)ccc1F)c1ncnc2ccoc12 (stereo not drawn) [Example 374, [2-Fluoro-5-(7-morpholin-4-yl-quinazolin-4-yl)-phenyl]furo[3,2-d}-pyrimidin-4-yl-methanol] | 5.30 to 6.30 | > 8.52 |  | pKi (Kv11.1 (hERG); [6]): 4.60 to 4.82
16 | Cn1nc(C(O)c2cc(-c3ncnc4cc(N5CCOCC5)ccc34)c(F)cc2Cl)ccc1=O (single isomer, unassigned) [Example 44, 6-{[2-Chloro-4-fluoro-5-(7-morpholin-4-yl-quinazolin-4-yl)phenyl]-hydroxymethyl}-2-methyl-2H-pyridazin-3-one] |  |  |  | pIC50 [1, 4]: 5.00 to 5.30; pIC50 (DNA-PK; enzymatic, 5 μM ATP): 7.52 to 8.15; pKi (Kv11.1 (hERG); [7]): 4.60 to 4.82
17 | CC(C)(C)Oc1nccnc1C(O)c1ccc(F)c(-c2ncnc3cc(N4CCOCC4)ccc23)c1 (stereo not drawn) [Example 13, (3-tert-Butoxy-pyrazin-2-yl)-[4-fluoro-3-(7-morpholin-4-yl-quinazolin-4-yl)phenyl]-methanol] |  |  |  | pIC50 [1, 4]: 4.52 to 5.00; pIC50 (DNA-PK; enzymatic, 5 μM ATP): < 7.52; pKi (Kv11.1 (hERG); [7]): 4.82 to 5.00
18 | Cc1cnc(C(C(N)=O)c2ccc(F)c(-c3ncnc4cc(N5CCOCC5)ccc34)c2)c(C)n1 (stereo not drawn) [Example 318, 2-(3,5-Dimethyl-pyrazin-2-yl)-2-[4-fluoro-3-(7-morpholin-4-yl-quinazolin-4-yl)-phenyl]acetamide] | 4.52 to 5.00 | 7.52 to 8.15 | < 4.60 | 
19 | O=C(O)c1ccc(C(O)c2cc(-c3ncnc4cc(N5CCOCC5)ccc34)c(F)cc2Cl)nn1 (stereo not drawn) [Example 55, 6-{[2-Chloro-4-fluoro-5-(7-morpholin-4-yl-quinazolin-4-yl)phenyl]-hydroxymethyl}-pyridazine-3-carboxylic acid] |  |  |  | pIC50 [1, 4]: 4.52 to 5.00; pIC50 (DNA-PK; enzymatic, 5 μM ATP): 8.15 to 8.52; pKi (Kv11.1 (hERG); [5]): < 4.60
20 | COc1nccnc1C(O)c1cc(-c2ncnc3cc(N4CCOCC4)ccc23)ccc1Cl (stereo not drawn) [Example 422, [2-Chloro-5-(7-morpholin-4-yl-quinazolin-4-yl)-phenyl]-(3-methoxy-pyrazin-2-yl)-methanol] | 5.30 to 6.30 | 8.15 to 8.52 | 4.82 to 5.00 | 
21 | Cn1c(C(O)c2cc(-c3ncnc4cc(N5CCOCC5)ccc34)ccc2F)cccc1=O (stereo not drawn) [Example 365, 6-{[2-Fluoro-5-(7-morpholin-4-yl-quinazolin-4-yl)-phenyl]hydroxy-methyl}-1-methyl-1H-pyridin-2-one] | 5.30 to 6.30 | 8.15 to 8.52 | < 4.60 | 

Second part, led by results:

Row | pIC50 [1, 2] | pIC50 (DNA-PK; biochemical DNA-PK assay) | SMILES | pKi (Kv11.1 (hERG); [3]) | also measured
22 | 5.30 to 6.30 | 8.15 to 8.52 | COc1ccc(C(O)c2cc(-c3ncnc4cc(N5CCOCC5)cnc34)c(F)cc2Cl)nn1 (stereo not drawn) [Example 227, [2-Chloro-4-fluoro-5-(7-morpholin-4-yl-pyrido[3,2-d}-pyrimidin-4-yl)-phenyl]-(6-methoxy-pyridazin-3-yl)-methanol] | < 4.60 | 
23 | 5.30 to 6.30 | 8.15 to 8.52 | Cc1nccnc1C(C(N)=O)c1cc(-c2ncnc3cc(N4CCOCC4)ccc23)c(F)cc1Cl (stereo not drawn) [Example 324, 2-[2-Chloro-4-fluoro-5-(7-morpholin-4-yl-quinazolin-4-yl)-phenyl]-2-(3-methyl-pyrazin-2-yl)-acetamide] | < 4.60 | 
24 | > 6.30 | 8.15 to 8.52 | Cn1c(C(O)c2cc(-c3ncnc4cc(N5CCOCC5)ccc34)c(F)cc2Cl)cccc1=O (stereo not drawn) [Example 435, 6-{[2-Chloro-4-fluoro-5-(7-morpholin-4-yl-quinazolin-4-yl)-phenyl]hydroxy-methyl}-l-methyl-1H-pyridin-2-one] | < 4.60 | 
25 | 5.30 to 6.30 | 8.15 to 8.52 | Cc1cnc(C(O)c2cc(-c3ncnc4cc(N5CCOCC5)ccc34)c(F)cc2F)c(C)n1 (stereo not drawn) [Example 355, [2,4-Difluoro-5-(7-morpholin-4-yl-quinazolin-4-yl)-phenyl]-(3,5-dimethyl-pyrazin-2-yl)methanol] |  | pKi (Kv11.1 (hERG); [6]): 4.60 to 4.82
26 | > 6.30 | 8.15 to 8.52 | COc1nccnc1C(O)c1cc(-c2ncnc3cc(N4CCOCC4)ccc23)c(F)cc1F (stereo not drawn) [Example 453, [2,4-Difluoro-5-(7-morpholin-4-yl-quinazolin-4-yl)-phenyl]-(3-methoxy-pyrazin-2-yl)-methanol] |  | pKi (Kv11.1 (hERG); [6]): 4.82 to 5.00
27 | 5.30 to 6.30 | 7.52 to 8.15 | Cc1nccnc1C(O)c1cc(-c2ncnc3cc(N4CCOCC4)cnc23)c(F)cc1Cl (stereo not drawn) [Example 240, [2-Chloro-4-fluoro-5-(7-morpholin-4-yl-pyrido[3,2-d}-pyrimidin-4-yl)-phenyl]-(3-methyl-pyrazin-2-yl)-methanol] | < 4.60 | 

From patent US9732094B2, “Arylquinazolines” (Merck Patent GmbH, priority 2013, dated 2017)
